Data as given in patent US9458137B2, “Substituted indol-5-ol derivatives and their therapeutical applications” (NantBioScience, Inc., priority 2012, dated 2016).

Legend:
Assay in all cases: Kinase panel activity
Type in all cases: biochemical
Conditions in all cases: 0.1 μM, ATP Km
ASK1(h) = ASK1(h) (Homo sapiens, UniProt Q99683)
Experimental: (§1) The effect of NTW-3475 on kinase activity was tested for a wide range of kinases and is shown in Table 2: Summary Sheet, Activity % ATP Concentration: Km

Arg(m) = Arg(m) (Mus musculus, UniProt Q4JIM5)
Experimental: as §1

CDK5/p35(h) = CDK5/p35(h) (Homo sapiens, UniProt Q00535)
Experimental: as §1

CaMKI(h) = CaMKI(h) (Homo sapiens, UniProt Q14012)
Experimental: as §1

DCAMKL2(h) = DCAMKL2(h) (Homo sapiens, UniProt Q8N568)
DCAMKL2(h), sequence (Q8N568 whole entry): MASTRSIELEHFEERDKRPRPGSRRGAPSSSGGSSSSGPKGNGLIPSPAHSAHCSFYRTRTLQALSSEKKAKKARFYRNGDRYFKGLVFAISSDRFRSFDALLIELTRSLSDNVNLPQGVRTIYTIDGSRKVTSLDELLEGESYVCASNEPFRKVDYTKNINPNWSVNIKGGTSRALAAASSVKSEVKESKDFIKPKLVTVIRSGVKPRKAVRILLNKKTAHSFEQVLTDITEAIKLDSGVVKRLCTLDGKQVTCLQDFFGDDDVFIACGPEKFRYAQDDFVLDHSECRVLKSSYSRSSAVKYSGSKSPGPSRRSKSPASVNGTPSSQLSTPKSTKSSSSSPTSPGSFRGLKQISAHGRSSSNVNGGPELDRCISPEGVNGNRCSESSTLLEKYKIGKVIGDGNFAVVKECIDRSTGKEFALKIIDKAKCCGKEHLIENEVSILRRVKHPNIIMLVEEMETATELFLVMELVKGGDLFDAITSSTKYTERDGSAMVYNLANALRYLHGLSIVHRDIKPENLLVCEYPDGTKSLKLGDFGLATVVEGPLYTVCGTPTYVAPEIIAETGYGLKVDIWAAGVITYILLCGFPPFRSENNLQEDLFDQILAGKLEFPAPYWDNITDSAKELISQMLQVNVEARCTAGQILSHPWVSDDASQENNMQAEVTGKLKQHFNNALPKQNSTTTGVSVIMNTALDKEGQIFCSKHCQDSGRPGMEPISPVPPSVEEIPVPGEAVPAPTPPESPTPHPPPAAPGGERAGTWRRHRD
Experimental: as §1

EGFR(T790M,L858R)(h) = target: T1, EGFR(T790M,L858R)(h) (Homo sapiens, UniProt P00533, L858R/T790M)
T1 construct: purchased Millipore (KinaseProfiler service)
Experimental: as §1

EphA3(h) = target: T2, EphA3(h) (Homo sapiens, UniProt P29320)
T2 construct: purchased Millipore (KinaseProfiler service)
T2 sequence (P29320 21-983): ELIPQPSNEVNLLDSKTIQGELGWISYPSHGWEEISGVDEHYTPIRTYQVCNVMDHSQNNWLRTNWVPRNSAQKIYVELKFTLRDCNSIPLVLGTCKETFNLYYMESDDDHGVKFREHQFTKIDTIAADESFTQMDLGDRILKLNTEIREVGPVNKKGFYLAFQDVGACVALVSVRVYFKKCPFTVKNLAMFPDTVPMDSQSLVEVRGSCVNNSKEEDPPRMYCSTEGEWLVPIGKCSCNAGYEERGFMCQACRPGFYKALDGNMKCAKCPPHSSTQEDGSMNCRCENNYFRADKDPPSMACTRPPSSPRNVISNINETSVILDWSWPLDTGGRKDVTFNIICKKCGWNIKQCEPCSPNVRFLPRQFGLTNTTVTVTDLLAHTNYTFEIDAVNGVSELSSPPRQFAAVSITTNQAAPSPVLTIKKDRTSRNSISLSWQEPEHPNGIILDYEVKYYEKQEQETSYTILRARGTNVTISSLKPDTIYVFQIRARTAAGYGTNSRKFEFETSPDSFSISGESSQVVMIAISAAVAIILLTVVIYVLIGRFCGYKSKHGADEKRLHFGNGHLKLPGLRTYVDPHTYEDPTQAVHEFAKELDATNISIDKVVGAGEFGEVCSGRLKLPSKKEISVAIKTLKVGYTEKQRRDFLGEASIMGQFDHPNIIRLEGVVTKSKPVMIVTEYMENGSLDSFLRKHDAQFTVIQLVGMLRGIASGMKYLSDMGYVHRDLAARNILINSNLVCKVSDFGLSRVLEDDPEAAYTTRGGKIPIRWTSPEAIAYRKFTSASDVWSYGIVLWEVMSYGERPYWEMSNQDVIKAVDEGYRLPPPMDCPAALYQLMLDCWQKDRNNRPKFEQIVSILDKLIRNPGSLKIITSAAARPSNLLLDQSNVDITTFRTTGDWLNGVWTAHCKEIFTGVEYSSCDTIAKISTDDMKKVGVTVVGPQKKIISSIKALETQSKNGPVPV
Experimental: as §1

EphA8(h) = target: T3, EphA8(h) (Homo sapiens, UniProt P29322)
T3 construct: purchased Millipore (KinaseProfiler service)
Experimental: as §1

EphB3(h) = target: T4, EphB3(h) (Homo sapiens, UniProt P54753)
T4 construct: purchased Millipore (KinaseProfiler service)
Experimental: as §1

EphB4(h) = target: T5, EphB4(h) (Homo sapiens, UniProt P54760)
T5 construct: purchased Millipore (KinaseProfiler service)
Experimental: as §1

F1t3(D835Y)(h) = F1t3(D835Y)(h) (Homo sapiens, UniProt P36888, D835Y)
Experimental: as §1

Fes(h) = target: T6, Fes(h) (Homo sapiens, UniProt P07332)
T6 construct: purchased Millipore (KinaseProfiler service)
Experimental: as §1

HIPK3(h) = HIPK3(h) (Homo sapiens, UniProt Q9H422)
Experimental: as §1

Haspin(h) = Haspin(h) (Homo sapiens, UniProt Q8TF76)
Experimental: as §1

IGF-1R(h), activated = IGF-1R(h), activated (Homo sapiens, UniProt P08069)
Experimental: as §1

IR(h) = IR(h) (Homo sapiens, UniProt P06213)
IR(h), sequence (P06213 28-1382): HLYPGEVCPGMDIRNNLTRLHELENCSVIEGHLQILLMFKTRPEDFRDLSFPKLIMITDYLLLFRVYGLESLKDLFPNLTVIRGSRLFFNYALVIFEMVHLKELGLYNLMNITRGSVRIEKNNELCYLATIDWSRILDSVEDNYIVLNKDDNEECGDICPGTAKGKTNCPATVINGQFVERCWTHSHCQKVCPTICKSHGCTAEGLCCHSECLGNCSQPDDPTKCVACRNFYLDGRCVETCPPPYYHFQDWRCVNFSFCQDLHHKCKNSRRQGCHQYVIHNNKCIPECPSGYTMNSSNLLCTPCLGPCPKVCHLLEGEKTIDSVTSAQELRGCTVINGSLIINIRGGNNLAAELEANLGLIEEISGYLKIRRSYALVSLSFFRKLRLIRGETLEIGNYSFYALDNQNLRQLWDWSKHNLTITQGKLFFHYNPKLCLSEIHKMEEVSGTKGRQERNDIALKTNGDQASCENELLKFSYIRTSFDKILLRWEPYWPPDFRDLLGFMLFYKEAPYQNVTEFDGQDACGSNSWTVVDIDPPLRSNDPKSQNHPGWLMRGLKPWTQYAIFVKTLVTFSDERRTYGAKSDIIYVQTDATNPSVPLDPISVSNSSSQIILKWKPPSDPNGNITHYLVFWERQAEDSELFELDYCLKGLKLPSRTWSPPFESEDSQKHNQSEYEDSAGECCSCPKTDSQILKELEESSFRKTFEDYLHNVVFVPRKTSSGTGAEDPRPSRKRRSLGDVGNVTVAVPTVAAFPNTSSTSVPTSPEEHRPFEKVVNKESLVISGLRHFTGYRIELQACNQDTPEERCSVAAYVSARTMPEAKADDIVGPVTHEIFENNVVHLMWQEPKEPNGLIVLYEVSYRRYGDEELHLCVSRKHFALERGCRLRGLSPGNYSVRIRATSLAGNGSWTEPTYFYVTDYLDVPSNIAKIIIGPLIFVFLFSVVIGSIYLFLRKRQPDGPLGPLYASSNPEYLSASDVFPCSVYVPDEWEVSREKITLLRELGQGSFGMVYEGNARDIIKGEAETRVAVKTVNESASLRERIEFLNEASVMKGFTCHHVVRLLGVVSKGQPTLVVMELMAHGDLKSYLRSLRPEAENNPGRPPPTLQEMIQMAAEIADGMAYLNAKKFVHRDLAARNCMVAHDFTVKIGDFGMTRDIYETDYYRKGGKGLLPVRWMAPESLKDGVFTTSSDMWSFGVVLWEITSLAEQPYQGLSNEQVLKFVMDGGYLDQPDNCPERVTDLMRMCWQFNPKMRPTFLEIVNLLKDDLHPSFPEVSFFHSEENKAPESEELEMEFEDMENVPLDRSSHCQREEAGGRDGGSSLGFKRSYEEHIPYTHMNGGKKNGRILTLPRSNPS
Experimental: as §1

JNK1α1(h) = JNK1α1(h) (Homo sapiens, UniProt P45983)
JNK1α1(h), sequence (P45983 1-384 isoform P45983-2): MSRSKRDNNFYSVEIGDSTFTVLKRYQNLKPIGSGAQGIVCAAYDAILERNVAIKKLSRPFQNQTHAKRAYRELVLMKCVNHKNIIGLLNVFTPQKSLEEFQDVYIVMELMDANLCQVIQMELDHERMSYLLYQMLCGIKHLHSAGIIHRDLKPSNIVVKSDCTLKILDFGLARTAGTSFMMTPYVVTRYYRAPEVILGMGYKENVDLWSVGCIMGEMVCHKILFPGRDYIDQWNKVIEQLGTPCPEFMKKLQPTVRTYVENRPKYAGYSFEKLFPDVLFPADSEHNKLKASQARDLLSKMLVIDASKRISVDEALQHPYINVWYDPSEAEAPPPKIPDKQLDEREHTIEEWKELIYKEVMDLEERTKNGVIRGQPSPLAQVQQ
Experimental: as §1

KDR(h) = KDR(h) (Homo sapiens, UniProt P35968)
Experimental: as §1

LKB1(h) = LKB1(h) (Homo sapiens, UniProt Q15831)
Experimental: as §1

MAPK2(h) = MAPK2(h) (Homo sapiens, UniProt P28482)
Experimental: as §1

MELK(h) = target: T7, MELK(h) (Homo sapiens, UniProt Q14680)
T7 construct: purchased Millipore (KinaseProfiler service)
T7 sequence (Q14680 whole entry): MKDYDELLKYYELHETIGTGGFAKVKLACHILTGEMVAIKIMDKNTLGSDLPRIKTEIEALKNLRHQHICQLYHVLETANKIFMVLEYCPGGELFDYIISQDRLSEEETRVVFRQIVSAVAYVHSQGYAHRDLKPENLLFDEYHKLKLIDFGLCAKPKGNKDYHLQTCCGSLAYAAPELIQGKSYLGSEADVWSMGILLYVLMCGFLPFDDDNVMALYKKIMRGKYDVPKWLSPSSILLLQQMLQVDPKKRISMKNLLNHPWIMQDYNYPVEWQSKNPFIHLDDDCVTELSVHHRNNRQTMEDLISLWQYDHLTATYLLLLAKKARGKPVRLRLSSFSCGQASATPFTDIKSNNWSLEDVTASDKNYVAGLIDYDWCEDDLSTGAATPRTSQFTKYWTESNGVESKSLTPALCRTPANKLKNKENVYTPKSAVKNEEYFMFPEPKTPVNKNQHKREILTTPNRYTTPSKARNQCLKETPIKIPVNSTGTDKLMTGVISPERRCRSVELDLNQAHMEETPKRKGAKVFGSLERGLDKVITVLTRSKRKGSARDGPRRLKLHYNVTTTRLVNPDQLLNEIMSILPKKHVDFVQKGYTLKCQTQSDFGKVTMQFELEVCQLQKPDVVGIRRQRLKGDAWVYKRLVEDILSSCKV
Experimental: as §1

MRCKα(h) = target: T8, MRCKα(h) (Homo sapiens, UniProt Q5VT25)
T8 construct: purchased Millipore (KinaseProfiler service)
Experimental: as §1

MST1(h) = MST1(h) (Homo sapiens, UniProt Q13043)
Experimental: as §1

PKA(h) = PKA(h) (Homo sapiens, UniProt P17612)
Experimental: as §1

PKCζ(h) = PKCζ(h) (Homo sapiens, UniProt Q05513)
Experimental: as §1

PKCθ(h) = PKCθ(h) (Homo sapiens, UniProt Q04759)
Experimental: as §1

PKD2(h) = PKD2(h) (Homo sapiens, UniProt Q9BZL6)
Experimental: as §1

PRAK(h) = PRAK(h) (Homo sapiens, UniProt Q8IW41)
Experimental: as §1

PTK5(h) = target: T9, PTK5(h) (Homo sapiens, UniProt P42685)
T9 construct: purchased Millipore (KinaseProfiler service)
Experimental: as §1

Pim-3(h) = Pim-3(h) (Homo sapiens, UniProt Q86V86)
Experimental: as §1

ROCK-I(h) = target: T10, ROCK-I(h) (Homo sapiens, UniProt Q13464)
T10 construct: purchased Millipore (KinaseProfiler service)
Experimental: as §1

Ret(V804L)(h) = target: T11, Ret(V804L)(h) (Homo sapiens, UniProt P07949, V804L)
T11 construct: purchased Millipore (KinaseProfiler service)
Experimental: as §1

Snk(h) = target: T12, Snk(h) (Homo sapiens, UniProt Q9NYY3)
T12 construct: purchased Millipore (KinaseProfiler service)
Experimental: as §1

TSSK2(h) = target: T13, TSSK2(h) (Homo sapiens, UniProt Q96PF2)
T13 construct: purchased Millipore (KinaseProfiler service)
Experimental: as §1

TrkB(h) = target: T14, TrkB(h) (Homo sapiens, UniProt Q16620)
T14 construct: purchased Millipore (KinaseProfiler service)
Experimental: as §1

Txk(h) = Txk(h) (Homo sapiens, UniProt P42681)
Experimental: as §1

cKit(V560G)(h) = cKit(V560G)(h) (Homo sapiens, UniProt P10721, V560G)
cKit(V560G)(h), sequence (P10721 26-976 V560G): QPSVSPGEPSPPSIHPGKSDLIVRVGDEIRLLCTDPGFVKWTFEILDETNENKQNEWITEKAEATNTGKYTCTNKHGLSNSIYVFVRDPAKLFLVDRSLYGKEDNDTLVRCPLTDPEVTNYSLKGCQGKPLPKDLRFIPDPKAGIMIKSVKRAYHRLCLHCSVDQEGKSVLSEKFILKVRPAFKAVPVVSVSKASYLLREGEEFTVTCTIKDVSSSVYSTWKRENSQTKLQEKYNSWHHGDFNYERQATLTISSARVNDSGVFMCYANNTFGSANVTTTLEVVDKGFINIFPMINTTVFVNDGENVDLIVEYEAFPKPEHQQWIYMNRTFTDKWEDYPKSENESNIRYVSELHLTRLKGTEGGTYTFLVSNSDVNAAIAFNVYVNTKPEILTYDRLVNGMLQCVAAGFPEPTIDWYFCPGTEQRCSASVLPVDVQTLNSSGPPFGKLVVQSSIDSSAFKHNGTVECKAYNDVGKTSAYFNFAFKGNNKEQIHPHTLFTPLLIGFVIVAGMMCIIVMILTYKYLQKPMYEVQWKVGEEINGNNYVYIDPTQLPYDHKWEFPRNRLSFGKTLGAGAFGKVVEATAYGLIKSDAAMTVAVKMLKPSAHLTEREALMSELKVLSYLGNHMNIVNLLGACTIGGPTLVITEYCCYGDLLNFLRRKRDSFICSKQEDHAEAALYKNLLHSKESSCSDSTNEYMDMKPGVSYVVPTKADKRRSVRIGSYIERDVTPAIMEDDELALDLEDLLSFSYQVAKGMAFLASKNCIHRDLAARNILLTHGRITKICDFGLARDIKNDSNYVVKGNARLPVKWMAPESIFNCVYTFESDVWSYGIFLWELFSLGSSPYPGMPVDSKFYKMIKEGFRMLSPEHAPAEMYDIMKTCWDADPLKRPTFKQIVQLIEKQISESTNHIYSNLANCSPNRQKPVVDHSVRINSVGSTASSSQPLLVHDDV
Experimental: as §1

mTOR(h) = mTOR(h) (Homo sapiens, UniProt P42345)
Experimental: as §1

mTOR/FKBP12(h) = mTOR/FKBP12(h) (Homo sapiens, UniProt P42345)
Experimental: as §1

p70S6K(h) = p70S6K(h) (Homo sapiens, UniProt P23443)
Experimental: as §1

Cc1cc2c(F)c(Oc3nc(Nc4cc(C5CC5)[nH]n4)cc(N4CCN(C)CC4)n3)cc(F)c2[nH]1 [NTW-3475]
Activity % (ASK1(h)): 112% | Activity % (Arg(m)): −2% | Activity % (CDK5/p35(h)): 77% | Activity % (CaMKI(h)): 90% | Activity % (DCAMKL2(h)): 87% | Activity % (EGFR(T790M,L858R)(h)): 17% | Activity % (EphA3(h)): 22% | Activity % (EphA8(h)): 16% | Activity % (EphB3(h)): 99% | Activity % (EphB4(h)): 14% | Activity % (F1t3(D835Y)(h)): 0% | Activity % (Fes(h)): 32% | Activity % (HIPK3(h)): 88% | Activity % (Haspin(h)): 96% | Activity % (IGF-1R(h), activated): 18% | Activity % (IR(h)): 30% | Activity % (JNK1α1(h)): 92% | Activity % (KDR(h)): 14% | Activity % (LKB1(h)): 98% | Activity % (MAPK2(h)): 105% | Activity % (MELK(h)): 40% | Activity % (MRCKα(h)): 102% | Activity % (MST1(h)): 24% | Activity % (PKA(h)): 111% | Activity % (PKCζ(h)): 109% | Activity % (PKCθ(h)): 109% | Activity % (PKD2(h)): 94% | Activity % (PRAK(h)): 100% | Activity % (PTK5(h)): 17% | Activity % (Pim-3(h)): 99% | Activity % (ROCK-I(h)): 93% | Activity % (Ret(V804L)(h)): −4% | Activity % (Snk(h)): 97% | Activity % (TSSK2(h)): 84% | Activity % (TrkB(h)): 1% | Activity % (Txk(h)): 20% | Activity % (cKit(V560G)(h)): 3% | Activity % (mTOR(h)): 115% | Activity % (mTOR/FKBP12(h)): 63% | Activity % (p70S6K(h)): 84%
